Laboratory results: US20130029983A1, “AMINOTHIENOPYRIDAZINE INHIBITORS OF TAU ASSEMBLY” (priority 2009, published 2013)
Like-named read-outs stand apart in the source and are kept apart here.

Key:
[1] = Brain and plasma drug levels 1 h after i.p. administration (LC-MS/MS); format: in vivo; conditions: mice, 1 h after i.p. 5 mg/Kg
Description: (§1) Test compounds underwent preliminary evaluations of brain penetration, in which 5 mg/Kg of each compound was administered intraperitoneally (i.p.) to a group of three normal mice; drug levels in brain and plasma were determined at a single time-point (1 h) by LC-MS/MS using pre-validated calibration curves. […] However, both esters appeared to have relatively short half-lives in plasma, as indicated by the limited amount of parent drug detected after 1 h from administration of the compounds. […] CNDR-51362 was selected for full PK analysis in which brain and plasma drug levels were determined at six time points (i.e., 30 min, 1 h, 2 h, 4 h, 8 h, and 16 h). The results from this experiment, illustrated in FIG. 6A, confirmed that the total B/P exposure ratio over 16 h is 1.6. […] Finally, in order to investigate the potential for ATPZ congeners to be orally administered, we evaluated brain and plasma level of CNDR-51362 and CNDR-51349 after oral administration of 5 mg/Kg.
(§2) Brain tissue was homogenized in 10 mM ammonium acetate, pH 5.7 (1:2; w/v) using a handheld sonic homogenizer. Plasma was obtained from blood that was collected into a 1.5 mL tube containing 0.5M EDTA solution and subjected to centrifugation for 10 min. at 4500 g at 4° C. Aliquots (50 μL) of brain homogenate or plasma were mixed with 0.2 mL of acetonitrile, centrifuged at 15,000 g, and the resulting supernatants were used for subsequent LC-MS/MS analysis. The LC-MS/MS system was comprised of an Aquity HPLC and a TQ MS that was controlled using MassLynx software (Waters Corporation, Milford, Mass., USA). Compounds were detected using multiple reaction monitoring (MRM) of their specific collision-induced ion transitions. Samples (5 μL) were separated on an Aquity BEH C18 column (1.7 μm, 2.1×50 mm) at 35° C. Operation was in positive electrospray ionization mode, with mobile phase A of 0.1% (v/v) formic acid, and B of either acetonitrile or methanol with 0.1% (v/v) formic acid at a flow rate of 0.6 mL/min using a gradient from 5% to 95% B over two min., followed by wash and re-equilibration steps. The MS was operated with a desolvation temperature of 450° C. and a source temperature of 150° C. Desolvation and source nitrogen gas flows were 900 L/hr and 50 L/hr, respectively. Source and MS/MS voltages were optimized for each compound using the MassLynx auto tune utility. Standard curves were generated for each compound from brain homogenate and plasma samples that had compound added at 4, 40, 400 and 4000 ng/mL and extracted as above. Peak areas were plotted against concentration and a 1/x weighted linear regression curve was used to quantify the tissue-derived samples using the average peak area from triplicate injections.

[2] = Full PK analysis and oral administration, brain and plasma levels; format: in vivo, mice; conditions: for half-life: 2 mg/kg, full PK analysis, FIG. 6A
Description: FIG. 6. (A) Brain and plasma level of F4 (CNDR-51362) after i.v. administration at 2 mg/Kg; (B) Brain and plasma level of F4 (CNDR-51362) after oral administration at 5 mg/Kg; (C) Brain and plasma level of F3 (CNDR-51349) after oral administration at 5 mg/Kg
as §1, §2

[3] = target: T1, Aβ(1-42) (Homo sapiens, UniProt P05067); assay: Aβ(1-42) fibrillization assay (ThT); format: biochemical; conditions: Table 3; highest tested concentration (80 μM); read-out: Aβ42 ThT Assay % Inhib.
T1 construct: Synthetic Aβ(1-42) peptide (rPeptide); purchased rPeptide
T1 sequence (P05067 672-713 limits assumed): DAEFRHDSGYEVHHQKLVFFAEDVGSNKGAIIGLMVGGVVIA

Row | Compound | B/P, ratio between brain/plasma drug level [1] | Kp at 16 h ([2]; mouse, brain and plasma, iv, over 16 h, six time points, FIG. 6A (i.v. 2 mg/Kg), read-out: Total brain-to-plasma (B/P) AUC exposure ratio) | half-life ([2]; mouse, brain, iv, read-out: Elimination half-life in the brain (converted)) [h] | half-life ([2]; mouse, plasma, iv, read-out: Elimination half-life in plasma (converted)) [h] | bioavailability ([2]; mouse, plasma AUC after oral 5 mg/Kg versus i.v. 2 mg/Kg) [%] | Brain concentration after oral administration ([2]; oral 5 mg/Kg, FIGS. 6B and 6C, 5 mg/kg) | melting point [°C] | B/P, ratio between brain/plasma drug level ([1]; 5 mg/kg) | B/P, ratio between brain/plasma drug level ([1]; listed as CNDR-51346, 5 mg/kg) | inhibition at 80 µM [3] [%]
1 | Nc1scc2c(C(=O)NC3CC3)nn(-c3ccc(Cl)cc3)c(=O)c12 [CNDR-51362, 5-Amino-3-(4-chlorophenyl)-N-cyclopropyl-4-oxo-3,4-dihydrothieno[3,4-d]pyridazine-1-carboxamide] | 1.6 | 1.6 | ~9.5 | ~7.4 | ~64 | significant brain concentrations | – | – | – | –
2 | CCOC(=O)c1nn(-c2ccc(Cl)cc2)c(=O)c2c(N)scc12 [Compound 17, Ethyl 5-amino-3-(4-chlorophenyl)-4-oxo-3,4-dihydrothieno[3,4-d]pyridazine-1-carboxylate] | – | – | – | – | – | – | 189 to 191 | 3.3 | comparatively higher B/P ratio | 41
